In patent US10808008B2, “Aromatic-cationic peptides and uses of same” (Cornell University, priority 2012, dated 2020):
Where no end group is shown, it is not given here. [ ]: non-standard residue; d: D form.

How the values were obtained:
[1] = Fluorescence spectroscopy of labelled peptide with other phospholipids; format: binding; details: POPA, DPPG, POPS, cardiolipin
Protocol: 1-palmitoyl-2-oleoyl-sn-glycero-3-phosphocholine (POPC), 1-palmitoyl-2-oleoyl-sn-glycero-3-phosphate (POPA), 1-palmitoyl-2-oleoyl-sn-glycero-3-phospho-L-serine (POPS), 1-palmitoyl-2-oleoyl-sn-glycero-3-phosphoethanolamine (PE), and 1,2-dipalmitoyl-sn-glycero-3-phospho-(1′-rac-glycerol) (DPPG) were obtained from Avanti Polar Lipids Inc (Alabaster, Ala.).
Changes in the emission intensity of the [atn]SS-02 and the [ald]SS-02 were measured using a Hitachi F-4500 fluorescence spectrophotometer. The different solvents used to dissolve the various phospholipids (chloroform, methanol and ethanol) had negligible effect on the fluorescence spectrum of [atn]SS-02 and [ald]SS-02. All experiments were done in low ionic solution (deionized water) to optimize electrostatic interactions of peptides with phospholipids.

[2] = biological target: cardiolipin-cytochrome c complex (Equus caballus, UniProt P00004); test: Cytochrome c reduction in the presence of cardiolipin; format: biochemical
cardiolipin-cytochrome c complex, sequence (P00004 2-105 limits assumed, one chain of several): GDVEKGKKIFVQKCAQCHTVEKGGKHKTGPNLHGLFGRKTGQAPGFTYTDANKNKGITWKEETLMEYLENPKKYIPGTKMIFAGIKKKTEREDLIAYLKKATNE
Protocol: Reduction of cytochrome c (20 μM) was induced by the addition of glutathione (500 μM) in the absence or presence of CL (100 μg/ml) (FIG. 15A). Reduction of cytochrome c was monitored by absorbance at 550 nm using a 96-well UV-VIS plate reader (Molecular Devices). Addition of CL decreased the rate of cytochrome c reduction by half.
The time course of cytochrome c reduction by ascorbate was recorded at 550 nm and 570 nm using a 96-well plate reader (Molecular Devices, Sunnyvale, Calif.). For all reactions, cytochrome c was preincubated with cardiolipin in the presence or absence of SS peptides for 1 min. […] Ascorbate (50 μM) was added to initiate the reduction of cytochrome c, and the absorbance was recorded for 5 min. The rate of reduction was calculated based on slope of the change in absorbance intensity of 550 nm over 570 nm.

cytochrome c/CL complex = cytochrome c/CL complex (Equus caballus, UniProt P00004); test: Peroxidase activity of cytochrome c/cardiolipin complex (Amplex Red); format: biochemical; details: 10 μM peptide; 2 μM cytochrome c; cardiolipin 100 μg/ml
cytochrome c/CL complex, sequence (P00004 2-105 limits assumed, one chain of several): as above
Excerpt: The six coordination of the heme in cytochrome c prevents direct interaction of H2O2 with the catalytic metal site, and native cytochrome c in solution is a poor peroxidase. Upon interaction with CL, cytochrome c undergoes a structural change with rupture of the Fe-Met80 coordination. […] The mechanism of action of cytochrome c peroxidase is similar to that of other peroxidases, such as horse radish peroxidase (HRP). Thus it is possible to use the amplex red-HRP reaction to investigate cytochrome c peroxidase activity. In the presence of peroxidase, amplex red (AR) reacts with H2O2 to form the red-fluorescent oxidation product, resorufin (Ex/Em=571/585).
Cytochrome c (2 μM) was mixed with CL (25 μg/ml) and 10 μM H2O2 in 20 mM HEPES, pH 7.4. Amplex red (50 μM) was then added and fluorescence emission monitored in real time using Hitachi F4500 fluorescence spectrophotometer. Addition of amplex red elicited rapid increase in fluorescence signal due to resorufin formation, providing direct evidence for peroxidase activity of cytochrome c/CL complex (FIG. 19A).
Assessment of cytochrome c peroxidase activity was achieved using the Amplex® Red assay (Invitrogen/Life Technologies, Carlsbad, Calif.). Amplex® Red is a reagent that reacts with H2O2 in a 1:1 stoichiometry to produce highly fluorescent resorufin (λex/λem=570/585) in the presence of a peroxidase. In this assay, cytochrome c is added in place of horseradish peroxidase. 2 μM cytochrome c was incubated with cardiolipin or cardiolipin-POPC liposomes (10 μg/ml) for 1 min in 20 mM HEPES (pH 7.4) or deionized water prior to the addition of 50 μM Amplex® Red reagent and 10 μM H2O2, and the reaction was allowed to proceed for an additional 5 minutes. The continuous time course data were obtained using Hitachi F-4500 fluorescence spectrophotometer. When comparing the different SS peptide analogs (10 μM) in inhibiting peroxidase activity cytochrome c (2 μM) in the presence of cardiolipin (100 μg/ml), a microplate spectrofluorometer (Molecular Devices, Sunnyvale, Calif.) was used. Horseradish peroxidase (HRP) was used for comparison, and the HRP concentration (0.001 U/ml) was optimized to match the rate of Amplex® Red peroxidation by cardiolipin-cytochrome c complex.

[3] = biological target: cytochrome c and cardiolipin (Equus caballus, UniProt P00004); test: Oxidation of ferrous cytochrome c by cardiolipin (A550); format: biochemical; details: 20 μM cytochrome c reduced by 50 μM ascorbic acid; 100 μg/ml cardiolipin
cytochrome c and cardiolipin, sequence (P00004 2-105 limits assumed): as the sequence (P00004 2-105 limits assumed, one chain of several) above
Protocol: Cytochrome c (20 μM) was reduced by 50 μM ascorbic acid until all available functionally active cytochrome c was reduced. The reduction of cytochrome c was monitored by the appearance of a peak at 550 nm in its absorbance spectrum (Molecular Devices, Sunnyvale, Calif.). […] The rate of oxidation was calculated based on slope of the change in absorbance intensity of 550 nm over 570 nm.

[4] = biological target: cytochrome c/cardiolipin complex (Equus caballus, UniProt P00004); test: Soret circular dichroism of cytochrome c with cardiolipin; format: biochemical; details: 10 μM cytochrome c
cytochrome c/cardiolipin complex, sequence (P00004 2-105 limits assumed, one chain of several): as above
Protocol: Circular dichroism (CD) was carried out to examine the effects of the peptides on protecting the heme environment of cytochrome c from the acyl chain of CL. For heme proteins, the Soret CD spectrum is strictly correlated with the heme pocket conformation. In particular, the negative 416-420 nm Cotton effect is considered diagnostic of Fe(III)-Met80 coordination in native cytochrome c (Santucci and Ascoli, 1997). […] CD spectra were obtained using AVIV CD Spectrometer Model 410.
Changes in the Soret CD spectrum of cytochrome c (10 μM) were recorded in the absence (dotted line) and presence (dashed line) of 30 μg/ml CL, plus addition of different peptides (10 μM) (solid line) (FIG. 14). CD measurements were carried out using 20 mM HEPES, pH 7.5, at 25° C. and expressed as molar ellipticity (A) (m Deg). […] Accordingly, aromatic-cationic peptides of the present disclosure are useful for the prevention or treatment of diseases or disorders characterized by dysregulation of cardiolipin and/or cytochrome c, and/or diseases or disorders characterized by dysregulation of the cardiolipin/cytochrome c interaction. In addition, aromatic-cationic peptides of the present disclosure are useful to protect the heme environment of cytochrome c from the acyl chain of cardiolipin.
Circular Dichroism (CD) spectra were collected with an AVIA 62 DS spectrophotometer equipped with a sample temperature controller. CD spectra of the Soret region (370-450 nm) were recorded with 10-mm path length cells containing 20 mM Hepes, pH 7.4, and 10 μM cytochrome c, in the presence or absence of 30 μg/ml cardiolipin and different SS peptide analogs (SS-02, [atn]SS-02, [ald]SS-02, and SS-31). The maximum lipid concentration was kept low to avoid spectral distortions due to excessive light scattering. All measurements were done at 25° C. All spectra were corrected for background, and the final spectrum shown represents the average of at least three experiments.

isolated mitochondria = test: ATP synthesis in isolated mitochondria; format: biochemical, rat; details: mitochondria energized with low concentrations of succinate
Protocol: (§1) Fresh mitochondria were isolated from rat kidney as described previously. Electron flux was measured by O2 consumption (Oxygraph Clark electrode) as previously described using different substrates for C1 (glutamate/malate), C2 (succinate), and C3 (TMPD/ascorbate). Assays were carried out under low substrate conditions in order to avoid saturating the enzyme reactions. ATP production in isolated mitochondria was determined kinetically using the luciferase method (Biotherma) in a 96-well luminescence plate reader (Molecular Devices). The initial maximal rate for ATP synthesis was determined over the first minute.
The rate of mitochondrial ATP synthesis was determined by measuring ATP in respiration buffer collected from isolated mitochondria 1 min after addition of […] (FIG. 6). ATP was assayed by HPLC. All experiments were carried out in triplicate, with n=3. […] Accordingly, aromatic-cationic peptides of the present disclosure are useful for increasing ATP synthesis in mitochondria and for treating diseases or disorder characterized by dysregulation of ATP synthesis.
(§2) SS-20 or SS-31 was added at 100 μM concentrations to isolated mitochondria in respiration buffer containing 0.5 mM succinate (complex II substrate) and 400 μM ADP. Similar increases in O2 consumption were observed when low concentrations of complex I substrates (glutamate/malate) were used (data not shown). […] Accordingly, targeting SS-20 and SS-31 to the IMM can facilitate electron flux in the electron transport chain and improve ATP synthesis, especially under conditions of reduced substrate supply.
Increase in electron flux in the electron transport chain can either result in increase in ATP synthesis or increase in electron leak and generation of free radicals. ATP synthesis in isolated mitochondria was assayed by HPLC. […] Accordingly, aromatic-cationic peptides of the present disclosure are useful for increasing ATP synthesis in mitochondria and for treating diseases or disorder characterized by dysregulation of ATP synthesis.

cytochrome c = cytochrome c (Equus caballus, UniProt P00004); test: Cytochrome c reduction kinetics (absorption spectroscopy); format: biochemical; details: glutathione (GSH) as reducing agent; absorbance at 550 nm
cytochrome c, sequence (P00004 2-105 limits assumed): as the sequence (P00004 2-105 limits assumed, one chain of several) above
Protocol: Increasing amounts of aromatic-cationic peptides were added to a solution of oxidized cytochrome c. The formation of reduced cytochrome c was monitored by absorbance at […]. The rate of cytochrome c reduction was determined by non-linear analysis (Prizm software).
Time-resolved UV-Visible absorption spectroscopy was used to study the electron transport process of cytochrome c in the presence of peptides. Reduced cytochrome c was monitored by absorbance at a broad-band spectral range (200-1100 nm). The absorption changes were recorded with a UV/Visible spectrophotometer (Ultrospec 3300 pro, GE) in quartz cells with path lengths of 1 or 2 mm. N-acetylcysteine (NAC) and glutathione were used as electron donors to reduce oxidized cytochrome c. The rate constant of cytochrome c reduction was estimated by adding various concentrations of peptides. The dose dependence of the peptides was correlated to the cytochrome c reduction kinetics.
Absorption spectroscopy (UltroSpec 3300 Pro; 220-1100 nm) was used to determine if SS-31 modulates cytochrome c reduction (FIG. 1). Reduction of cytochrome c with glutathione is associated with multiple shifts in the Q band (450-650 nm), with a prominent shift at 550 nm. […] Accordingly, the aromatic-cationic peptides of the present disclosure are useful for altering the structure and oxidation state of cytochrome c, and are useful for the prevention or treatment of diseases or disorders characterized by dysregulation of cytochrome c.
Reduction of cytochrome c was monitored by increase in absorbance at 550 nm. […] Similar results were obtained using N-acetylcysteine (NAC) as a reducing agent (not shown). […] Accordingly, aromatic-cationic peptides of the present disclosure are useful for the prevention or treatment of diseases or disorders characterized by dysregulation of cytochrome c and are useful for facilitating cytochrome c reduction.

[5] = test system: isolated rat kidney mitochondria; test: O2 consumption in isolated mitochondria; format: biochemical; details: 400 μM ADP
Protocol: as §1
Oxygen consumption of isolated rat kidney mitochondria was determined using the Oxygraph (FIG. 5). Rates of respiration were measured in the presence of different concentrations of SS-31 in state 2 (400 μM ADP only), state 3 (400 μM ADP and 500 μM substrates) and state 4 (substrates only). All experiments were done in triplicate with n=4−7. […] Accordingly, aromatic-cationic peptides of the present disclosure are useful for promoting electron transfer to oxygen without uncoupling mitochondria, increasing O2 consumption, and treating diseases or conditions related to dysregulation of O2 consumption in mitochondria.
as §2
SS-20 or SS-31 was added at 10 μM or 100 μM concentrations to isolated mitochondria in respiration buffer containing glutamate/malate (complex I substrate), 0.5 mM succinate (complex II substrate) or 3 μM TMPD/1 mM ascorbate (direct reductant of cytochrome c). 400 μM ADP was added to initiate State 3 respiration.

Substance | specificity of peptide-phospholipid interaction [1] | rate of cytochrome c reduction in the presence of cardiolipin ([2]; 40 μM peptide, 20 μM cytochrome c, 100 μg/ml cardiolipin, 50 μM ascorbate, 10% with cardiolipin alone) | peroxidation rate of cytochrome c (cytochrome c/CL complex) | oxidation of cytochrome c by cardiolipin (loss of the 550 nm peak) [3] | loss of the negative Cotton peak at 419 nm caused by cardiolipin ([4]; 30 μg/ml cardiolipin, peptide 1:1 with cytochrome c, pH 7.4) | rate of ATP production (isolated mitochondria) | rate (kinetics) of cytochrome c reduction (cytochrome c) | CL inhibition of cytochrome c reduction ([2]; 500 μM GSH) | protection against CL-induced disappearance of negative Cotton effect ([4]; 30 μg/ml CL, 10 μM peptide, 20 mM HEPES pH 7.5, 25° C.) | O2 consumption in state 3 respiration ([5]; 10 μM or 100 μM peptide, complex I or complex II substrates or TMPD/ascorbate) | electron flux measured by O2 consumption ([5]; 100 μM peptide, 0.5 mM succinate)
2′,6′-Dmt-D-Arg-Phe-Lys-NH2 [SS-02] | specific for phospholipids with anionic headgroups | about 60% | about 70 % of control | inhibition of cytochrome c oxidation | prevented | – | – | – | – | – | –
F[dR]FK-NH2 [SS-20] | – | – | – | – | – | significant increase in the rate of ATP production | accelerate the kinetics of cytochrome c reduction | prevented CL inhibition of cytochrome c reduction | Protect the Heme Environment of Cytochrome c from the Acyl Chain of CL | increases O2 consumption in state 3 respiration | promote electron flux
